Experimental data from article PMC6857076 (Pharmacology Research & Perspectives, 2019).

System: JAK-dependent cytokine receptors
Assay: Integrated modeling: calculated cytokine receptor inhibitory concentrations (ICxx)
Parameters: species or system human
Details: calculated ICxx at clinically meaningful doses, Figure 1
From the text: An integrated modeling approach was applied to determine cytokine receptor inhibition profiles. Whole blood IC50 values were converted to unbound values (IC50,u) using measured blood‐to‐plasma ratios and measured fu values, as shown in Equation 2:(2) IC50,u=IC50/blood:plasma ratio×fu

## CC[C@@H]1CN(C(=O)NCC(F)(F)F)C[C@@H]1c1cnc2cnc3[nH]ccc3n12 [Upadacitinib]
  Inhibition (ICxx) of JAK1/JAK2-mediated (IFNγ, G-CSF) and JAK2-mediated (TPO, IL-3, GM-CSF) cytokine receptors vs other JAK inhibitors: numerically greater
